Measured values from ChEMBL document CHEMBL1201862, “PubChem BioAssay data set” (2004).
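Exposure lasted 48 hours, with cells grown in 96-well plates and compounds tested at five concentrations. Abbreviation: GI50, concentration required for 50% inhibition of growth.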 Calls of active or inactive are those of the source. Cut-off read from the data, not from the text of the source: active = GI50 up to about 1.1 µM and inactive = higher.

How the values were obtained:
Assay in all cases: DTP human tumour cell line panel, 48 h
786-0 = system: 786-0
A498 = system: A498
A549 = system: A549
ACHN = system: ACHN
CAKI-1 = system: CAKI-1
DLD-1 = system: DLD-1
DMS-114 = system: DMS-114
DMS-273 = system: DMS-273
EKVX = system: EKVX
HCC 2998 = system: HCC 2998
HCT-116 = system: HCT-116
HCT-15 = system: HCT-15
HL-60 = system: HL-60
HOP-18 = system: HOP-18
HOP-62 = system: HOP-62
HOP-92 = system: HOP-92
HT-29 = system: HT-29
IGROV-1 = system: IGROV-1
K562 = system: K562
KM-20L2 = system: KM-20L2
KM12 = system: KM12
LOX IMVI = system: LOX IMVI
LXFL 529 = system: LXFL 529
M14 = system: M14
M19-MEL = system: M19-MEL
MOLT-4 = system: MOLT-4
Malme-3M = system: Malme-3M
NCI-H226 = system: NCI-H226
NCI-H23 = system: NCI-H23
NCI-H460 = system: NCI-H460
OVCAR-3 = system: OVCAR-3
OVCAR-4 = system: OVCAR-4
OVCAR-5 = system: OVCAR-5
OVCAR-8 = system: OVCAR-8
RPMI-8226 = system: RPMI-8226
RXF 393 = system: RXF 393
RXF 631 = system: RXF 631
SF-268 = system: SF-268
SF-295 = system: SF-295
SF-539 = system: SF-539
SK-MEL-28 = system: SK-MEL-28
SK-MEL-2 = system: SK-MEL-2
SK-MEL-5 = system: SK-MEL-5
SN12C = system: SN12C
SNB-19 = system: SNB-19
SNB-75 = system: SNB-75
SNB-78 = system: SNB-78
SW-620 = system: SW-620
TK-10 = system: TK-10
U-251 = system: U-251
UACC-257 = system: UACC-257
UACC-62 = system: UACC-62
UO-31 = system: UO-31
XF498 = system: XF498
CCRF-CEM = system: CCRF-CEM
COLO 205 = system: COLO 205
NCI-H522 = system: NCI-H522
SK-OV-3 = system: SK-OV-3

CCc1ccccc1NC(=O)C(=O)C1C(=O)N(c2ccccc2)N=C1N (stereo not given)
GI50 (786-0): > 100 µM (inactive) | GI50 (A498): > 100 µM (inactive) | GI50 (A549): > 100 µM (inactive) | GI50 (ACHN): > 100 µM (inactive) | GI50 (CAKI-1): > 100 µM (inactive) | GI50 (DLD-1): > 100 µM (inactive) | GI50 (DMS-114): > 100 µM (inactive) | GI50 (DMS-273): > 100 µM (inactive) | GI50 (EKVX): > 100 µM (inactive) | GI50 (HCC 2998): > 100 µM (inactive) | GI50 (HCT-116): > 100 µM (inactive) | GI50 (HCT-15): > 100 µM | GI50 (HL-60): 72.4 µM (inactive) | GI50 (HOP-18): > 100 µM (inactive) | GI50 (HOP-62): > 100 µM (inactive) | GI50 (HOP-92): > 100 µM (inactive) | GI50 (HT-29): > 100 µM (inactive) | GI50 (IGROV-1): > 100 µM (inactive) | GI50 (K562): > 100 µM (inactive) | GI50 (KM-20L2): > 100 µM (inactive) | GI50 (KM12): > 100 µM (inactive) | GI50 (LOX IMVI): > 100 µM (inactive) | GI50 (LXFL 529): > 100 µM (inactive) | GI50 (M14): > 100 µM (inactive) | GI50 (M19-MEL): > 100 µM (inactive) | GI50 (MOLT-4): 8.3 µM (inactive) | GI50 (Malme-3M): > 100 µM (inactive) | GI50 (NCI-H226): > 100 µM (inactive) | GI50 (NCI-H23): > 100 µM (inactive) | GI50 (NCI-H460): > 100 µM (inactive) | GI50 (OVCAR-3): > 100 µM (inactive) | GI50 (OVCAR-4): > 100 µM (inactive) | GI50 (OVCAR-5): > 100 µM (inactive) | GI50 (OVCAR-8): > 100 µM (inactive) | GI50 (RPMI-8226): > 100 µM (inactive) | GI50 (RXF 393): > 100 µM (inactive) | GI50 (RXF 631): > 100 µM (inactive) | GI50 (SF-268): > 100 µM (inactive) | GI50 (SF-295): > 100 µM (inactive) | GI50 (SF-539): > 100 µM (inactive) | GI50 (SK-MEL-28): > 100 µM (inactive) | GI50 (SK-MEL-2): > 100 µM (inactive) | GI50 (SK-MEL-5): > 100 µM (inactive) | GI50 (SN12C): > 100 µM (inactive) | GI50 (SNB-19): > 100 µM (inactive) | GI50 (SNB-75): > 100 µM (inactive) | GI50 (SNB-78): > 100 µM (inactive) | GI50 (SW-620): > 100 µM (inactive) | GI50 (TK-10): > 100 µM (inactive) | GI50 (U-251): > 100 µM (inactive) | GI50 (UACC-257): > 100 µM (inactive) | GI50 (UACC-62): > 100 µM (inactive) | GI50 (UO-31): > 100 µM (inactive) | GI50 (XF498): > 100 µM (inactive)

O=S(O)CCCCSSCCCCSSCCCCS(=O)O
GI50 (786-0): > 100 µM (inactive) | GI50 (A498): 96.6 µM (inactive) | GI50 (A549): 34 µM (inactive) | GI50 (ACHN): 40.9 µM (inactive) | GI50 (CAKI-1): 95.3 µM (inactive) | GI50 (CCRF-CEM): 5.9 µM (inactive) | GI50 (COLO 205): 22.6 µM (inactive) | GI50 (DLD-1): 86.1 µM (inactive) | GI50 (DMS-114): 25.5 µM (inactive) | GI50 (DMS-273): 42.6 µM (inactive) | GI50 (EKVX): 6.38 µM (inactive) | GI50 (HCC 2998): > 100 µM (inactive) | GI50 (HCT-116): > 100 µM (inactive) | GI50 (HCT-15): 42.7 µM | GI50 (HL-60): 3.25 µM (inactive) | GI50 (HOP-18): 70.1 µM (inactive) | GI50 (HT-29): > 10 µM (inactive) | GI50 (IGROV-1): > 100 µM (inactive) | GI50 (K562): 15 µM (inactive) | GI50 (KM-20L2): > 100 µM (inactive) | GI50 (KM12): 76 µM (inactive) | GI50 (LOX IMVI): 12.8 µM (inactive) | GI50 (LXFL 529): 11.1 µM (inactive) | GI50 (M14): 11.2 µM (inactive) | GI50 (M19-MEL): 5.53 µM (inactive) | GI50 (MOLT-4): 0.851 µM (active) | GI50 (Malme-3M): 15.8 µM (inactive) | GI50 (NCI-H23): 36 µM (inactive) | GI50 (NCI-H460): 53.1 µM (inactive) | GI50 (NCI-H522): 13 µM (inactive) | GI50 (OVCAR-3): 33.9 µM (inactive) | GI50 (OVCAR-4): 16 µM (inactive) | GI50 (OVCAR-5): > 100 µM (inactive) | GI50 (OVCAR-8): 18.9 µM (inactive) | GI50 (RXF 393): 27.2 µM (inactive) | GI50 (RXF 631): 33.7 µM (inactive) | GI50 (SF-268): 27.4 µM (inactive) | GI50 (SF-295): 30.1 µM (inactive) | GI50 (SF-539): 66.2 µM (inactive) | GI50 (SK-MEL-28): 20.7 µM (inactive) | GI50 (SK-MEL-2): 24.9 µM (inactive) | GI50 (SK-MEL-5): 10.7 µM (inactive) | GI50 (SK-OV-3): > 100 µM (inactive) | GI50 (SN12C): 42.7 µM (inactive) | GI50 (SNB-19): > 100 µM (inactive) | GI50 (SNB-75): 6.31 µM (inactive) | GI50 (SNB-78): 15.7 µM (inactive) | GI50 (SW-620): 24.4 µM (inactive) | GI50 (TK-10): 26.4 µM (inactive) | GI50 (U-251): > 100 µM (inactive) | GI50 (UACC-257): 10.1 µM (inactive) | GI50 (UACC-62): 12.1 µM (inactive) | GI50 (UO-31): 29 µM (inactive) | GI50 (XF498): 6.41 µM (inactive)

COC1OC(CO)C(O)C(OC(C)=O)C1NC(=O)N(CCCl)N=O (stereo not given)
GI50 (786-0): 81.7 µM (inactive) | GI50 (A498): > 100 µM (inactive) | GI50 (A549): > 100 µM (inactive) | GI50 (ACHN): > 100 µM (inactive) | GI50 (CAKI-1): > 100 µM (inactive) | GI50 (CCRF-CEM): > 100 µM (inactive) | GI50 (COLO 205): > 100 µM (inactive) | GI50 (DLD-1): > 100 µM (inactive) | GI50 (DMS-114): > 100 µM (inactive) | GI50 (DMS-273): > 100 µM (inactive) | GI50 (EKVX): > 100 µM (inactive) | GI50 (HCC 2998): > 100 µM (inactive) | GI50 (HCT-116): > 100 µM (inactive) | GI50 (HL-60): 3.52 µM (inactive) | GI50 (HOP-18): > 100 µM (inactive) | GI50 (HT-29): > 100 µM (inactive) | GI50 (IGROV-1): > 100 µM (inactive) | GI50 (K562): > 100 µM (inactive) | GI50 (KM-20L2): > 100 µM (inactive) | GI50 (KM12): > 100 µM (inactive) | GI50 (LOX IMVI): 55 µM (inactive) | GI50 (LXFL 529): > 100 µM (inactive) | GI50 (M14): > 100 µM (inactive) | GI50 (M19-MEL): > 100 µM (inactive) | GI50 (MOLT-4): 95.9 µM (inactive) | GI50 (Malme-3M): > 100 µM (inactive) | GI50 (NCI-H226): > 100 µM (inactive) | GI50 (NCI-H23): > 100 µM (inactive) | GI50 (NCI-H460): 83.6 µM (inactive) | GI50 (NCI-H522): > 100 µM (inactive) | GI50 (OVCAR-3): > 100 µM (inactive) | GI50 (OVCAR-4): > 100 µM (inactive) | GI50 (OVCAR-5): > 100 µM (inactive) | GI50 (OVCAR-8): > 100 µM (inactive) | GI50 (RXF 393): > 100 µM (inactive) | GI50 (RXF 631): > 100 µM (inactive) | GI50 (SF-268): 21.3 µM (inactive) | GI50 (SF-295): 42.7 µM (inactive) | GI50 (SF-539): 34.3 µM (inactive) | GI50 (SK-MEL-28): > 100 µM (inactive) | GI50 (SK-MEL-2): 0.0112 µM (active) | GI50 (SK-MEL-5): > 100 µM (inactive) | GI50 (SK-OV-3): > 100 µM (inactive) | GI50 (SN12C): > 100 µM (inactive) | GI50 (SNB-19): > 100 µM (inactive) | GI50 (SNB-75): 46 µM (inactive) | GI50 (SNB-78): > 100 µM (inactive) | GI50 (SW-620): > 100 µM (inactive) | GI50 (TK-10): > 100 µM (inactive) | GI50 (UACC-257): > 100 µM (inactive) | GI50 (UACC-62): 24.8 µM (inactive) | GI50 (XF498): > 100 µM (inactive)
